Our source for the Ki values is BindingDB's records for doi:10.1074/jbc.M607293200 (The Scripps Research Institute, 2007).

By Ki is commonly meant a dissociation constant, usually derived from enzyme kinetics or from competition with a known ligand. A lower Ki goes with higher affinity.

Molecules are shown by their SMILES.

This assay concerns the target T1, Phosphoribosylglycinamide formyltransferase (Escherichia coli (strain K12), UniProt P08179).
T1 sequence (P08179 whole entry): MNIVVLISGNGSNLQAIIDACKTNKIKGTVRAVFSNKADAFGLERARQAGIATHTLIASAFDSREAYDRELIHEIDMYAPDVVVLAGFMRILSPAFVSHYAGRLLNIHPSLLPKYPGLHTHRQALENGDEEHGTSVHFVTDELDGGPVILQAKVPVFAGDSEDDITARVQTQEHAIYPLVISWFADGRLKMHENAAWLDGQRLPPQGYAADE
The assay can be described thus: GAR Tfase Activity Assay. The note with it: pH 7.5; 26 °C.
For the compound `O=C1NS(=O)(=O)Nc2nc[nH]c21` [1H,3H,4H,7H-2,1,3,5,7-imidazo[4,5-c][1,2,6]thiadiazine-2,2,4-trione], the Ki was more than 100 µM.
Regarding `O=C1NS(=O)(=O)Nc2c1ncn2[C@@H]1O[C@H](CO)[C@@H](O)[C@H]1O` [7-[(2R,3R,4S,5R)-3,4-dihydroxy-5-(hydroxymethyl)oxolan-2-yl]-1H,3H,4H,7H-2,1,3,5,7-imidazo[4,5-c][1,2,6]thiadiazine-2,2,4-trione], the Ki was more than 100 µM.
With `Nc1nc2c(c(=O)[nH]1)C[C@@H](CCc1ccc(C(=O)N[C@@H](CCC(=O)O)C(=O)O)cc1)CN2` [5,10-dideazatetrahydrofolic acid], the affinity corresponds to a Ki of 0.1 µM.
Regarding `O=C1NS(=O)(=O)Nc2c1ncn2[C@@H]1O[C@H](COP(=O)(O)O)[C@@H](O)[C@H]1O` [{[(2R,3S,4R,5R)-3,4-dihydroxy-5-(2,2,4-trioxo-1H,3H,4H,7H-2,1,3,5,7-imidazo[4,5-c][1,2,6]thiadiazin-7-yl)oxolan-2-yl]methoxy}phosphonic acid], the Ki was more than 100 µM.
